Laboratory results: US7176163B1, “Pharmacological effect potentiators for pesticides” (Meija Seika Kaisha, Ltd., priority 2000, dated 2007)

Assays:
[1] = system: cotyledon of cucumber (variety: Yotsuba); assay: Microbicide (Benomyl) absorption enhancement by spraying jasmonic acids; type: in vivo
Experimental: In the present test, Benlate (registered trademark, manufactured by DuPont Corp., containing 50% of Benomyl as the main component) was used as microbicide. As a test material, cotyledon of cucumber (variety: Yotsuba) was used and absorption amount of the microbicide (hereinafter, referred to as “Benomyl absorption amount”) was measured. To the cucumber on day 10 after the seeding was uniformly sprayed 0.22 ml per individual of 0.1% Benlate solution (0.05% Benomyl containing solution) that contains methyl jasmonate (hereinafeter, abbreviated as “MeJA”) or n-propyl (2-pentyl-3-oxocyclopentyl)acetate, also named n-propyldihydrojasmonic acid (hereinafter, abbreviated as “PDJ”) and the cucumber was placed in a glass-made chamber. MeJA or PDJ was mixed to make 0.001 ppm, 0.01 ppm, 0.1 ppm, 1.0 ppm, or 5.0 ppm based on the Benlate solution amount and applied simultaneously. After sealing the lid of the chamber, the cucumber was cultivated in an air-conditioned room. As a control, similarly Benlate-treated cucumber seedlings were placed in a separate chamber and cultivated.
After two days of cultivation, the cotyledons were cut off and the surfaces of them were washed carefully with a neutral detergent. The cotyledons were ground and extracted with heating. The treatment of extraction solution and quantitation of Benomyl were carried out by high performance liquid chromatography referring to the quantitation method of Benomyl in Residual Pesticide Standards Handbook (Kagaku Kogyo Nippo, 1995, pp843-845) using 2-methylbenzimidazolecarbamate, which is a metabolite of Benomyl, as an indicator. […] As will be apparent from Table 1, enhancement of the absorption of Benomyl by application of MeJA or PDJ was observed.
Tests on microbicide absorption enhancement were performed in the same manner as in Test Example 1 using the following compounds. Common names and abbreviations of each compound are shown in the brackets. The compounds were synthesized in the same manner as in the examples in Japanese Patent Application Laid-open No. Hei 11-140022. • 1. […] (dihydrojasmonic acid: DJA) • 2. allyl (2-pentyl-3-oxocyclopentyl)acetate (allyl dihydrojasmonate: ADJ) • 3. 2-pentenyl (2-pentyl-3-oxocyclopentyl)acetate (dihydrojasmonic acid-2-pentenyl: PEDJ) • 4. 3-butenyl (2-pentyl-3-oxocyclopentyl)acetate (dihydrojasmonic acid-3-butenyl: BEDJ) • 5. 3-butynyl (2-pentyl-3-oxocyclopentyl)acetate (butynyl dihydrojasmonate : BYDJ)
Each compound was mixed so that it occupies 0.01 ppm based on the Benlate solution and given at the same time. Extraction and quantitation were practiced by the methods described in Test Example 1. The results are shown as relative values of Benomyl absorption amount in each lot to that of control. As a result, as will be apparent from Table 6, enhancement of absorption of Benomyl was confirmed.

cucumber seedlings = assay: Benomyl absorption enhancement by fumigation of methyl jasmonate; type: in vivo; conditions: MeJA fumigation 25 μl/m^3, natural diffusion in sealed chamber; seedlings sprayed with 0.1% Benlate solution
Experimental: MeJA was applied as follows. MeJA Stock solution was charged in an open Petri dish (φ60 mm) to 25 μl/m^3, which was placed in a glass-made chamber and then sealed and allowed to naturally diffuse. Then, cucumber seedlings uniformly sprayed with 0.22 ml per individual of 0.1% Benlate solution (0.05% Benomyl containing solution) were placed and sealed. This was cultivated in an air-conditioned room. As a control cucumber seedlings that had been similarly treated with Benlate but not fumigated with MeJA were placed in a separate chamber and cultivated. Extraction was made in the same manner as in Test Example 1 and comparative quantitation in comparison with control lot was made.

cucumber powdery mildew = assay: Powdery mildew preventive effect improvement by methyl jasmonate fumigation; type: in vivo, Sphaeheca fuliginea; conditions: MeJA fumigation 25 μl/m^3 after 0.1% Benlate spraying; infection on day 3; control lot (no fumigation) = 100
Experimental: Cucumber seedlings were cultivated in the same manner as in Test Example 2 and uniformly sprayed with 0.22 ml per individual of 0.1% Benlate solution (0.05% Benomyl containing solution). Thereafter, MeJA fumigation was performed as follows. MeJA Stock solution was charged in an open Petri dish (φ60 mm) to 25 μl/m^3, which was placed in a glass-made chamber and then sealed. On day 3 after the initiation of the fumigation, cucumber powdery mildew was infected in the same manner as in Test Example 3 and powdery mildew plaque number was counted. […] The control lot means a lot in which no MeJA fumigation was performed. Thus, it was confirmed that MeJA fumigation further improved the powdery mildew preventive effect of Benomyl.

Poa annua = assay: Herbicidal effect enhancement by PDJ spraying; type: in vivo; conditions: Herbie liquid diluted 1/1000 plus PDJ 0.01 ppm; sprayed 5 ml/15 individuals; dry weight of above-ground part after 2 weeks
Experimental: Seeds of Poa annua were sown on commercially available cultivation soil for raising seedlings and after about 2 weeks of cultivation, seedlings of about 6 cm in height were obtained. For each lots, tests were performed in 5 series each with 3 individuals. The herbicide used was Herbie liquid (registered trademark of Meiji Seika Kaisha Limited, 18% Bialaphos containing solution) diluted to 1/1000. PDJ was used as a pharmacological action enhancer and this was added in an amount of 0.01 ppm based on the liquid amount of the herbicide. Application to the plant body was performed by spraying in an amount of 5 ml/15 individuals. After 2 weeks from the application, the dry weight of above-ground part was measured and mortality was calculated in accordance with the following equation and the effect was compared. […] Wilting Mortality={1−(growth amount of applied lot/growth amount of non-applied lot)}×100

[2] = system: cucumber powdery mildew (Sphaeheca fuliginea); assay: Powdery mildew preventive effect improvement by PDJ spraying; type: in vivo; conditions: infection 3 days after application, plaques counted after 10 days, control lot (Benlate without PDJ) = 100
Experimental: Cucumber seedlings were cultivated in the same manner as in Test Example 1 and uniformly sprayed with 0.22 ml per individual of 0.1% Benlate solution (0.05% Benomyl containing solution) mixed with PDJ in an amount of 0.01 ppm or 0.1 ppm based on the amount of Benlate solution. After 3 days from the application of Benlate solution, a spore suspension of cucumber powdery mildew (Sphaeheca fuliginea) prepared to 1.0×10^5 cells/ml was sprayed (0.2 ml per individual) on a first true leaf of each seedling and the seedlings were cultivated in a glass-made chamber. After 10 days, powdery mildew plagues were counted. […] Morbidity=(Average of powdery mildew plaque number on cucumber first true leaf in each treated lot)/(Average of powdery mildew plaque number on cucumber first true leaf in control lot)×100
Here, the control lot means a lot that is treated with a Benlate solution containing no PDJ. Thus, it was confirmed that PDJ spraying further increased the powdery mildew preventive effect of Benomyl.

[3] = Test Example 6: 0.01 ppm based on the Benlate solution, given at the same time
[4] = 0.001 ppm in 0.1% Benlate solution, sprayed simultaneously, cucumber cotyledons after two days
[5] = 0.01 ppm in 0.1% Benlate solution, sprayed simultaneously, cucumber cotyledons after two days
[6] = 0.1 ppm in 0.1% Benlate solution, sprayed simultaneously, cucumber cotyledons after two days
[7] = 1.0 ppm in 0.1% Benlate solution, sprayed simultaneously, cucumber cotyledons after two days

Row | SMILES | Relative value (%) of Benomyl absorption amount to that of control lot [1, 3] | Relative value (%) of Benomyl absorption amount to that of control lot [1, 4] | Relative value (%) of Benomyl absorption amount to that of control lot [1, 5] | Relative value (%) of Benomyl absorption amount to that of control lot [1, 6] | Relative value (%) of Benomyl absorption amount to that of control lot [1, 7] | also measured
1 | C=CCOC(=O)CC1CCC(=O)C1CCCCC (stereo not drawn) [ADJ, allyl (2-pentyl-3-oxocyclopentyl)acetate] | 145% | – | – | – | – | –
2 | C=CCCOC(=O)CC1CCC(=O)C1CCCCC (stereo not drawn) [BEDJ, 3-butenyl (2-pentyl-3-oxocyclopentyl)acetate] | 155% | – | – | – | – | –
3 | C#CCCOC(=O)CC1CCC(=O)C1CCCCC (stereo not drawn) [BYDJ, 3-butynyl (2-pentyl-3-oxocyclopentyl)acetate] | 130% | – | – | – | – | –
4 | CC/C=C\CC1C(=O)CCC1CC(=O)OC (stereo not drawn) [MeJA] | – | 96% | 124% | 127% | 142% | Relative value (%) of Benomyl absorption amount to that of control lot (cucumber seedlings): 144%; Relative value (%) of Benomyl absorption amount to that of control lot ([1]; 5.0 ppm in 0.1% Benlate solution, sprayed simultaneously, cucumber cotyledons after two days): 113%; Powdery Mildew Morbidity (cucumber powdery mildew): 76
5 | CCCCCC1C(=O)CCC1CC(=O)OCCC (stereo not drawn) [PDJ, n-propyl (2-pentyl-3-oxocyclopentyl)acetate] | – | 103% | 136% | 118% | 110% | Wilting Mortality (Poa annua): 81.2%; Powdery Mildew Morbidity ([2]; PDJ 0.01 ppm in 0.1% Benlate solution): 70; Powdery Mildew Morbidity ([2]; PDJ 0.1 ppm in 0.1% Benlate solution): 88
6 | CCC=CCOC(=O)CC1CCC(=O)C1CCCCC (stereo not drawn) [PEDJ, 2-pentenyl (2-pentyl-3-oxocyclopentyl)acetate] | 130% | – | – | – | – | –
